Experimental data taken from PMC12742849 (Protein & Cell, 2025).

Legend:
[1] = molecular target: GST-tagged Francisella RibD (Francisella tularensis, UniProt A0Q460); conditions: substrate generated in situ from GTP by E. coli RibA; with and without PEP
[2] = molecular target: ALFA-tagged RibD (RibD-ALFA), F. novicida (Francisella novicida); test: pull-down

GST-tagged Francisella RibD, sequence (A0Q460 1-355): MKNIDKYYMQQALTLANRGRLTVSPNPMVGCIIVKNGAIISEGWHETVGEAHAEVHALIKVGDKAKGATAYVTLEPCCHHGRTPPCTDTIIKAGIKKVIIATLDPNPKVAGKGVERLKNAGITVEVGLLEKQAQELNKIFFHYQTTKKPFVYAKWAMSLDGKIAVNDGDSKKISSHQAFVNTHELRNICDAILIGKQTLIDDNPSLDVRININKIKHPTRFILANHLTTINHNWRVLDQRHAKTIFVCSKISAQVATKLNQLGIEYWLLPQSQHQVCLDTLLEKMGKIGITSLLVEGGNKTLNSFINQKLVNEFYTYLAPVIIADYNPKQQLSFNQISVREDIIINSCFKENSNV

Compound	fluorescence of the RibD reaction product (ex 408 nm, em 485 nm) [1]	stoichiometry N [2]
Nc1nc(N[C@@H]2O[C@H](COP(=O)(O)O)[C@@H](O)[C@H]2O)c(N)c(=O)[nH]1 [2,5-diamino-6-ribosyl-amino-4(3H) pyrimidinedione 5′-phosphate]	Results showed similar activity for both, with PEP having the same effect on each	
FLAG-tagged enolase (enolase-FLAG), F. novicida (enzyme)		1
